For experiment [1], the system named is amyloride-sensitive Na/H co-transporter on LLC-PK1 cells. In words: Incorporation of sodium ion (22Na) in LLC-PK1 cells, with or without EIPA. The format is cell-based, pig. The note with it: 10 minutes. The method, then:
A culture solution of LLC-PK1 cells was substituted with a Hanks' choline chloride solution, CRSP and sodium chloride having a predetermined radioactivity (^22Na) were added thereto so as to make the final concentration 0 M, 10^−8 M, 10^−7 M and 10^−6 M each, the cells were washed after 10 minutes so that ^22Na contained in the solution outside the cells was completely removed and radioactivity incorporated into the cells was measured by a gamma-counter. Similarly, a culture solution of LLC-PK1 cells was substituted with a Hanks' choline chloride solution, sodium chloride having a predetermined radioactivity (^22Na) as well as CRSP and an amyloride derivative (5-(N-ethyl-N-isopropyl)-amiloride) (EIPA) which is an Na/H co-transporter inhibitor were added thereto so as to make the final concentration 0 M CRSP+0 M EIPA, 10^−6 M CRSP+0 M EIPA, 10^−6 M CRSP+10^−8 M EIPA, 10^−6 M CRSP+10^−7 M EIPA, 10^−6 M CRSP+10^−6 M EIPA and 0 M CRSP+10^−6 M EIPA each. Cells were washed after 10 minutes so that ^22Na contained in the outer solution of the cells was completely removed and radioactivity incorporated into the cells was measured by a gamma-counter.
The results are shown in FIG. 5 (incorporation of sodium ion in the absence of EIPA), FIG. 6 (incorporation of sodium ion in the presence of EIPA) and FIG. 7 (incorporation of calcium ion). […]

For experiment [2], the target named is T1, Pig calcitonin receptor (CTR) (Sus scrofa, UniProt P25117).
T1 construct: expressed in transfected cells; host or cells: COS-7 (given as rhesus monkey renal cells), vector pcDNA 3.1
T1 sequence (P25117 30-498): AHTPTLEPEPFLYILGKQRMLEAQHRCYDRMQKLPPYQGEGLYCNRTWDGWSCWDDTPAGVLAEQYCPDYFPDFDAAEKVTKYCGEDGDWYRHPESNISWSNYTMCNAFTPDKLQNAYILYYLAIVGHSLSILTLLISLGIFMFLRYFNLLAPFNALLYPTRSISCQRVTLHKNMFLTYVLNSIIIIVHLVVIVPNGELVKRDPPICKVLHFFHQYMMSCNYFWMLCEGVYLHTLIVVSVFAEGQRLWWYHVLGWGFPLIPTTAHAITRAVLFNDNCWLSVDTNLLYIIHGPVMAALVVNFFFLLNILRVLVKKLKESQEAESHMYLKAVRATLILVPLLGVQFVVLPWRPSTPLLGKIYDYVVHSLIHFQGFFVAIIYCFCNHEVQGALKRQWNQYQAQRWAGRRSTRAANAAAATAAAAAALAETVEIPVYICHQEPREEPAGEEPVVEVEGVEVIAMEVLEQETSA
In words: cAMP production in opossum renal epithelial cells (OK cells) expressing CTR. It counts as cell-based. Particulars: CTR expressed in OK cells. The method, then: Pig calcitonin receptor (CTR) was introduced into a mammalian expression vector pcDNA 3.1, expressed in rhesus monkey renal cells (COS-7) and production amount of cAMP by stimulation of CRSP was measured by radioimmunoassay. Similarly, CTR was expressed in opossum renal cells (OK cells) and production amount of cAMP by stimulation of CRSP was measured by radioimmunoassay while incorporation of sodium ion was measured by measuring the incorporation of sodium chloride having radioactivity (^22Na) by a gamma-counter. The results are shown in FIG. 10 (changes in cAMP productivity by CRSP stimulation in cells (COS-7) where calcitonin receptor was expressed in a genetic engineering manner), FIG. 11 (changes in cAMP productivity in opossum renal epithelial cells where pig calcitonin receptor (CTR) was expressed) and FIG. 12 (changes in incorporation of sodium ion in opossum renal epithelial cells where pig calcitonin receptor (CTR) was expressed).
Similarly, CTR was expressed in opossum renal cells (OK cells) and production amount of cAMP by CRSP stimulation was measured by radioimmunoassay while incorporation of sodium ion was measured by incorporation of radioactive sodium chloride (^22Na) using a gamma-counter.

Experiment [3] in a line: Calcium concentration in plasma of anesthetized rats. The format is in vivo. Particulars: rat, 16 nmol/kg from jugular vein. Here is the method: (§1) CRSP corresponding to an amount of 16 nmol/kg dissolved in a physiological saline solution was administered at a time within a short period from jugular vein of rat under an anesthetized condition and calcium concentration in the plasma and blood pressure were measured. The results are shown in FIG. 13 (changes in calcium concentration in blood by administration of CRSP) and FIG. 14 (changes in blood pressure by administration of CRSP).
(§2) CRSP corresponding to the amount of 16 nmol/kg dissolved in a physiological saline solution was administered at a time within short period from […] of rat under an anesthetized condition.

A short description of experiment [4]: Blood pressure of anesthetized rats. Particulars: rat, 16 nmol/kg from jugular vein. It counts as in vivo. The method, then: as §1, §2

Where a SMILES comes first, the peptide text is derived from it. Bridges are numbered along the chain shown (N, C = ends).

Take `CSCC[C@H](NC(=O)[C@H](CCCCN)NC(=O)[C@@H](NC(=O)[C@@H]1CCCN1C(=O)[C@H](CC(C)C)NC(=O)[C@H](CC(C)C)NC(=O)[C@H](CC(N)=O)NC(=O)[C@H](CO)NC(=O)[C@H](CCCNC(=N)N)NC(=O)[C@@H](NC(=O)[C@H](CCSC)NC(=O)[C@H](CO)NC(=O)CNC(=O)[C@H](CO)NC(=O)[C@H](CCCNC(=N)N)NC(=O)[C@H](CO)NC(=O)[C@H](CC(C)C)NC(=O)[C@H](CC(C)C)NC(=O)CNC(=O)[C@@H](NC(=O)[C@H](CC(C)C)NC(=O)[C@H](CCCNC(=N)N)NC(=O)[C@H](Cc1c[nH]cn1)NC(=O)[C@@H](NC(=O)[C@H](CCSC)NC(=O)[C@@H]1CSSC[C@H](NC(=O)[C@@H](N)CO)C(=O)N[C@@H](CC(N)=O)C(=O)N[C@@H]([C@@H](C)O)C(=O)N[C@@H](C)C(=O)N[C@@H]([C@@H](C)O)C(=O)N1)[C@@H](C)O)C(C)C)C(C)C)[C@@H](C)O)C(=O)NCC(=O)N[C@@H](Cc1ccccc1)C(=O)N[C@@H](CCCCN)C(=O)N[C@H](C(=O)N[C@@H](Cc1ccccc1)C(=O)NCC(N)=O)C(C)C` [CRSP] (H-SCNTATCMTHRLVGLLSRSGSMVRSNLLPTKMGFKVFG-NH2; disulfide 2-7): the “incorporation of sodium into cells” value in experiment [1] (10^-8 to 10^-6 M) is given as “promoted”. In experiment [1], the “amyloride-sensitive Na/H co-transporter” value is listed as “activated”. Also, the “intracellular adenylyl cyclase activity” value in experiment [2] is given as “increases”. In addition, the “calcium concentration in plasma” value in experiment [3] is “transiently lowered”. Also, the blood pressure result in experiment [4] is given as “no apparent change”.
